The numbers were not newly measured in patent US20110091452A1, “4,5-Dihydromacbecin Derivatives and Their Use in the Treatment of Cancer or B-Cell Malignancies” (priority 2006, published 2011), which cites them from elsewhere.

In one data set the target is Hsp90 (Homo sapiens, UniProt P07900).
For another data set, the system named is bacteria and fungi. The conditions noted are these: in vitro.
The target in data set [1] is terminal deoxynucleotidyl transferase (Homo sapiens, UniProt P04053).
Chain of terminal deoxynucleotidyl transferase (P04053 whole entry, species assumed): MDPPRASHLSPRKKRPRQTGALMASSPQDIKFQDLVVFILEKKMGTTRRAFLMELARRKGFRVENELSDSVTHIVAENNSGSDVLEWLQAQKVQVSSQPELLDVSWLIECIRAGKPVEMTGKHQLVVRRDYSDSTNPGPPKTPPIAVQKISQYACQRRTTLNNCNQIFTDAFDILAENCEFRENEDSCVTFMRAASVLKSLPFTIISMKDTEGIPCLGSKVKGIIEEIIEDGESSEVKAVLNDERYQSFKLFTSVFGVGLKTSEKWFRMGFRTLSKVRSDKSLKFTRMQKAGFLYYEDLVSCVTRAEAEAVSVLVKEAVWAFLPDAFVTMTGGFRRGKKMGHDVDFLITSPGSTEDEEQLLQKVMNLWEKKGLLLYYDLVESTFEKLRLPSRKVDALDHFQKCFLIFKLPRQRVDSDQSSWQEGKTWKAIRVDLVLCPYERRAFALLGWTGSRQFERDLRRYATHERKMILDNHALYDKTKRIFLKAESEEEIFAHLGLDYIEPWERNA

In the case of `CO[C@H]1C[C@H](C)Cc2cc(O)cc(c2)NC(=O)/C=C/CC[C@H](OC)[C@@H](OC(N)=O)/C(C)=C/[C@H](C)[C@H]1O` [KOSN1559], the “binding affinity to Hsp90, greater than 17-AAG” value on Hsp90 (relative to 17-AAG) is on record as 8 fold. Moreover, at Hsp90 (relative to geldanamycin), the “binding affinity to Hsp90, greater than geldanamycin” value was 4 fold.

`COC1=C2C[C@@H](C)C[C@H](OC)[C@H](O)[C@@H](C)/C=C(\C)[C@H](OC(N)=O)[C@@H](OC)/C=C\C=C(/C)C(=O)NC(=CC1=O)C2=O` [geldanamycin]: in the data set with protozoa, the “activity in vitro against protozoa” value is “strong activity”. The “activity against bacteria and fungi” value in the data set on bacteria and fungi is listed as “weak activity”.

`CO[C@H]1[C@@H](OC)C[C@H](C)[C@@H](OC)C2=CC(=O)C=C(NC(=O)/C(C)=C/C=C\[C@H](C)[C@@H](OC(N)=O)/C(C)=C/[C@@H]1C)C2=O` [macbecin]: the “inhibition of reverse transcriptase activity” value in the data set with Reverse transcriptase was “not inhibited”. The “inhibition of terminal deoxynucleotidyl transferase activity” value in data set [1] is “not inhibited”.
